Test results taken from US10308662B2, “Thienopyranones as kinase and epigenetic inhibitors” (SignalRx Pharmaceuticals, Inc., priority 2014, dated 2019).
Values belong to the compound of their own block, whether it stands above or below them.

Tests used:
[1] = tested on: pAKT serine 473 in PC3 cells; assay: Cellular PI3K inhibition, pAKT ELISA in PC3 cells; type: cell-based; conditions: Homo sapiens, PC-3; IGF-1 stimulated PC3 cells
Method: Biological testing of compounds of Formula I. Representative compounds of the invention were tested for cellular PI3K inhibitory activity (as measured by the most robust marker of pathway activity pAKT) in a prostate cancer cell line (PC3), which is summarized in Table 3. […] Two million cells from the prostate cancer line PC3 were placed into 6 cm culture dishes and allowed to grow in complete RPMI 1640 media (Invitrogen, Carlsbad, Calif., Cat.#22400-105) with 10% fetal bovine serum (Invitrogen, Carlsbad, Calif., Cat.#10438-026). After this time period the cells were serum starved for 5 hours followed by application of the test compound. Test compound was added as a DMSO (dimethyl sulfoxide) solution such that the final DMSO concentration in the cell media was less than or equal to 0.2% by volume. After 30 minutes of exposure the growth factor stimulant, human IGF-1 (PeproTech, Inc., Rocky Hill, N.J., Cat.#100-11), was added in each well. After 30 minutes of IGF-1 exposure, cells were removed from the media and cell lysates were prepared using RIPA Lysis buffer (Upstate, Lake Placid, N.Y., Cat.#20-188), keeping on ice. The pAKT serine 473 level was measured in duplicate samples of the cell lysates using commercially available assays such as the Pathscan® Sandwich ELISA kit for Ser473 pAKT (Cell Signaling, Danvers, Mass., Cat.#7160). A SpectraMax Plus spectrophotometric plate reader (Molecular Devices, Sunnydale, Calif.) was used to measure the optical density signal for pAKT at 450 nm (OD450 nm). The pAKT OD450 nm readings were normalized by total protein amount in the cell lysates determined by standard methods.

BRD4-1 = BRD4-1 (Homo sapiens (Human), UniProt O60885); conditions: cited from earlier work
MYCN promoter region = assay: Brd4 chromatin precipitation with quantitative PCR of MYCN promoter in SKNBE(2) cells; type: cell-based, human; conditions: 24 hours exposure
Method: MYCN amplified SKNBE(2) cells were exposed to inhibitors for 24 hours then chromatin was precipitated with Brd4 (rabbit polyclonal antibody) along with rabbit IgG as a negative control (IgG). Precipitated chromatin was analyzed for the MYCN gene (2 sites within the MYCN promoter region) by quantitative PCR and enrichment is shown as the percentage of total input DNA (FIG. 4). The negative control region primers amplify within a gene desert region approximately 1 Mb away from MYCN (MYC-N NR). Error bars represent±SEM of triplicate data. P<0.05 as compared to positive control (paired t-test).

PI-3 kinases = conditions: cited from earlier work
N-MYC = assay: Western blot of N-MYC in SKNBE(2) cells; type: cell-based, human; conditions: 24 hrs treatment, 50 ng/ml IGF stimulation
Method: (§1) Cells were stimulated with 50 ng/ml IGF for 30 min and used for lysate preparation. Proteins were quantitated by the BCA protein assay (Pierce). Equal amounts of protein were resolved by polyacrylamide gels, transferred to nitrocellulose membrane and probed by Western blot with the following primary antibodies: p-AKT(Ser473), AKT (Cell Signaling Technologies), N-MYC, CyclinD1 and β-actin (Santa Cruz Biotechnology).

BET bromodomains = conditions: cited from earlier work
p-AKT(Ser473) = assay: Western blot of pAKT in SKNBE(2) cells; type: cell-based, human; conditions: 24 hrs treatment, 50 ng/ml IGF stimulation
Method: as §1

PI3Kα = PI3Kα (Homo sapiens (Human), UniProt P42336); assay: PI3K alpha isoform inhibition; type: biochemical; conditions: 300 nM
PI3Kγ = PI3Kγ (Homo sapiens (Human), UniProt P48736); assay: PI3K gamma isoform inhibition; type: biochemical; conditions: 300 nM
HDAC = HDAC inhibitory activity, commercial kit; type: biochemical; conditions: for HDAC inhibitory activity: 1, 10, 50 μM
PI3Kδ = PI3Kδ (Homo sapiens (Human), UniProt O00329); assay: PI3K delta isoform inhibition; type: biochemical; conditions: 300 nM
From the text: (§2) Inhibitory activity can be determined routinely using known methods and also from commercial vendors offering this service for kinases and bromodomain proteins. […] In vivo, PI3K inhibition can be determined from target tissue biopsies by standard tissue processing to disrupt cells and then performing Western Blot analysis to determine the presence or absence of pAKT (substrate of PI3K) relative to a control sample. The activity of a compound of the invention as an inhibitor of a bromodomain-containing protein, such as a BET protein, such as BRD2, BRD3, BRD4, and/or BRDT, or an isoform or mutant thereof, may be determined in vitro, in vivo, or in a cell line. In vitro assays include assays that determine inhibition of bromodomain-containing proteins. Alternatively, inhibitor binding may be determined by running a competition experiment where a provided compound is incubated with a bromodomain-containing protein, such as a BET protein bound to known ligands, labeled or unlabeled. For example, bromodomain inhibition can be determined in vitro using Alpha Screen Technology (http://www.reactionbiology.com/webapps/site/NewsPDFs/Bromodomain%20Assay%20Platform%20for%20Drug%20Screening%20and%20Discovery.pdf). […]

BRD4 = BRD4 (Homo sapiens, UniProt O60885); assay: BRD4 inhibition assay (region not specified); type: binding
PI3K = PI3K inhibition (isoform not given); type: biochemical
From the text: as §2

breast cancer stem cells = conditions: women with breast tumors with high HER2; decreased from 11%; cited from earlier work

PI3Kδ, sequence (O00329 whole entry, canonical isoform): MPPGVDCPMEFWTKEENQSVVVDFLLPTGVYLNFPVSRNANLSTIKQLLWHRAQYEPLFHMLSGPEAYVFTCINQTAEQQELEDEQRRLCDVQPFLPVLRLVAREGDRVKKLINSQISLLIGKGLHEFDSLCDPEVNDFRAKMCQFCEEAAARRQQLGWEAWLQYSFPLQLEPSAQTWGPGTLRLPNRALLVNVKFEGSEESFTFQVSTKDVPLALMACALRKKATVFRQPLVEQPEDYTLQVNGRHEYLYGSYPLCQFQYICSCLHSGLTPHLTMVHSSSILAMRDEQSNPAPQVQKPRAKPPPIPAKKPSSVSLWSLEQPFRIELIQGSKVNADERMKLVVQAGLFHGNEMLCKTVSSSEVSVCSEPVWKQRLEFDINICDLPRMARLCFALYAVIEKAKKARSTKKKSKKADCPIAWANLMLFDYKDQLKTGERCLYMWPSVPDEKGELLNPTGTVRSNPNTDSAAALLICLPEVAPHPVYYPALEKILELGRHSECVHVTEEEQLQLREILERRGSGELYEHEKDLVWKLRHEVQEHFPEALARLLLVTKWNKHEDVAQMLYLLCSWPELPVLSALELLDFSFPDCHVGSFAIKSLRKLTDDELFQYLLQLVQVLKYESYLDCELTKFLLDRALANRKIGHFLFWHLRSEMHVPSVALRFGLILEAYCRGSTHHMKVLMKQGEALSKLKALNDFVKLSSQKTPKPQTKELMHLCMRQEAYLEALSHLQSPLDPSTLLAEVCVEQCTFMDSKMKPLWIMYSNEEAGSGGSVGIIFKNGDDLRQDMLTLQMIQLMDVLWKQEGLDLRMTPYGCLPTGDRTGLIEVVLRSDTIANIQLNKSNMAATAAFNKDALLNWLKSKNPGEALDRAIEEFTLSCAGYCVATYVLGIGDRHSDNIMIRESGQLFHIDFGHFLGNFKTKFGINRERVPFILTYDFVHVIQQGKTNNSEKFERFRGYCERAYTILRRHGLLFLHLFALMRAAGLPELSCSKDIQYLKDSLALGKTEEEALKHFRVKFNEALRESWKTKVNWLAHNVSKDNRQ
PI3Kδ, sequence (P27986 whole entry partner, canonical isoform): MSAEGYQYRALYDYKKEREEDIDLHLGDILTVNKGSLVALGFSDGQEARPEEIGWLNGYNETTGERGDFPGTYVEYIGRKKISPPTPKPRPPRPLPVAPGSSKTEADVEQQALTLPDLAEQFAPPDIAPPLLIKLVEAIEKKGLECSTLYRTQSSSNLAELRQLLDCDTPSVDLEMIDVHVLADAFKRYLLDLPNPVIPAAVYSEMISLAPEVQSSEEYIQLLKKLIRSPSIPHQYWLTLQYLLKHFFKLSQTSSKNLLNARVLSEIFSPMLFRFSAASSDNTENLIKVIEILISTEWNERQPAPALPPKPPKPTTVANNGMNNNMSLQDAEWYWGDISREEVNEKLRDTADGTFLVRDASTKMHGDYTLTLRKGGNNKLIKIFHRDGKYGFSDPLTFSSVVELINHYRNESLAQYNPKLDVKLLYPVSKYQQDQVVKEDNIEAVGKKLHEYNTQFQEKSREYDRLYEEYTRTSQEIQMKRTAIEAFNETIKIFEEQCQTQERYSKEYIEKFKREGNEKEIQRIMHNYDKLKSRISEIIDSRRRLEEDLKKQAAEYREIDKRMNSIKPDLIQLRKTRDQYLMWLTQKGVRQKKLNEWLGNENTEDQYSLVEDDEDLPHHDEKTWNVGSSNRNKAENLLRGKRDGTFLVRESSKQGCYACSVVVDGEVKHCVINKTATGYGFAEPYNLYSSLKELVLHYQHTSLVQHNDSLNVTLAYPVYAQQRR
PI3Kγ, sequence (P48736 whole entry, canonical isoform): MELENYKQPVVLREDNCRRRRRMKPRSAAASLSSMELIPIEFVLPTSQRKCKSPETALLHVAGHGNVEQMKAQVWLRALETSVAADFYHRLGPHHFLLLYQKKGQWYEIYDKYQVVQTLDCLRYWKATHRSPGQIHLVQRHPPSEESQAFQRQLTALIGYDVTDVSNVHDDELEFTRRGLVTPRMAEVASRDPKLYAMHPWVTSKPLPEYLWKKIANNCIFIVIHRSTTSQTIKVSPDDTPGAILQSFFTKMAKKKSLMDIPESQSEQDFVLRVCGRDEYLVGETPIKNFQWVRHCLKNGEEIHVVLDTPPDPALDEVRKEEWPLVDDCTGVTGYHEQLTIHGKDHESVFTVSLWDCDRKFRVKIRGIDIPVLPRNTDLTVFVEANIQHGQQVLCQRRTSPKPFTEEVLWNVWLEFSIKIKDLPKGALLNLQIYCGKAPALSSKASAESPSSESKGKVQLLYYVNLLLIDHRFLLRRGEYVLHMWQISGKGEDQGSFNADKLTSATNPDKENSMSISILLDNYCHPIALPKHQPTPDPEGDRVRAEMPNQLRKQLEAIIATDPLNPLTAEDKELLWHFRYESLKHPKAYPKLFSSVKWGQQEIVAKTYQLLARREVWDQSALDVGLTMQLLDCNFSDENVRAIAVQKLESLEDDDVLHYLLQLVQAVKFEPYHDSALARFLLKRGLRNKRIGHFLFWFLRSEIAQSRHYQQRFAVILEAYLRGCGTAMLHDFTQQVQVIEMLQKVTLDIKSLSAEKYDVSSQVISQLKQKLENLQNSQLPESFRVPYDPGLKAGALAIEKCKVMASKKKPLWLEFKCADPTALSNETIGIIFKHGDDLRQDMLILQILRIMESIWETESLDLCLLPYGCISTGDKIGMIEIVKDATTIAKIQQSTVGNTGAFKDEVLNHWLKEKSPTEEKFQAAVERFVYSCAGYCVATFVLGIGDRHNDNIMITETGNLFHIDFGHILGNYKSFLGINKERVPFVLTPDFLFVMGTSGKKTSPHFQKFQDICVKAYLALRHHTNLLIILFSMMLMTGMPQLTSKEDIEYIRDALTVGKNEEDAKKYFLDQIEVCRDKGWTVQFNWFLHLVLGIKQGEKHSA
PI3Kα, sequence (P42336 whole entry, canonical isoform): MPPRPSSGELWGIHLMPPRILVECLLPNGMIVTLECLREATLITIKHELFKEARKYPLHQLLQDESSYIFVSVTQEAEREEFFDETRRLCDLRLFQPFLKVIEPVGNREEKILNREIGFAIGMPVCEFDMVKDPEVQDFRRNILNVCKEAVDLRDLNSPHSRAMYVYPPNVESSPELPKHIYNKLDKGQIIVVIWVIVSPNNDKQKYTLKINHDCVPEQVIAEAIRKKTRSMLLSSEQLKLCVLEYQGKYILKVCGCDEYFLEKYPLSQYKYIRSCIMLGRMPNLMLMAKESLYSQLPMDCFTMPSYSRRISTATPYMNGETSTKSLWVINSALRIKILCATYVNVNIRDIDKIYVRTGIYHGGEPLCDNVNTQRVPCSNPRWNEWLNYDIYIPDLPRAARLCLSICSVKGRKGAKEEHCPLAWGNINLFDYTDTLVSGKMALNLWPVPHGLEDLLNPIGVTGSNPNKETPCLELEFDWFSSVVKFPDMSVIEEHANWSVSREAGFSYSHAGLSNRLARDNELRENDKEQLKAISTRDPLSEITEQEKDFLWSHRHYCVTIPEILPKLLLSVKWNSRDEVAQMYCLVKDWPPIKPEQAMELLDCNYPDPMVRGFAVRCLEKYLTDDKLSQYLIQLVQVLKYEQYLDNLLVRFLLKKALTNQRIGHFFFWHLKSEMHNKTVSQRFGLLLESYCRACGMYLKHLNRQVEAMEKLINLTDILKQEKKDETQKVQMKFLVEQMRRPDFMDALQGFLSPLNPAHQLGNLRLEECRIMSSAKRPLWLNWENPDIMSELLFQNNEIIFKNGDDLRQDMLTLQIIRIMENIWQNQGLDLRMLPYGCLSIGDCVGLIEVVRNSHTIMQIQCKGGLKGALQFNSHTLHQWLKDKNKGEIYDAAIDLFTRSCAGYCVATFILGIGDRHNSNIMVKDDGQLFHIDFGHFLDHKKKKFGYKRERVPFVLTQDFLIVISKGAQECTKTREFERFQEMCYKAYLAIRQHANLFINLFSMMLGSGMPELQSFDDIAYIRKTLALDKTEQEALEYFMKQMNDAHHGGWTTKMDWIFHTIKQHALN
PI3Kα, sequence (P27986 whole entry partner, canonical isoform): as the sequence (P27986 whole entry partner, canonical isoform) above

IC50 [1]: 609 nM
SMILES: CN1CCOc2cc(-c3csc4c(=O)cc(N5CCOCC5)oc34)ccc21 [Cmpd 22]

IC50 [1]: 1270 nM
SMILES: O=c1cc(N2CCOCC2)oc2c(C#Cc3ccsc3)csc12 [Cmpd 23]

IC50 [1]: 913 nM
SMILES: O=c1cc(N2CCOCC2)oc2c(-c3ccc(Cl)c(Cl)c3)csc12 [Cmpd 18]

IC50 [1]: 980 nM
SMILES: COc1ccc(-c2csc3c(=O)cc(N4CCOCC4)oc23)cc1 [Cmpd 8]

IC50 [1]: 4610 nM
SMILES: O=c1cc(N2CCOCC2)oc2c(C#CCO)csc12 [Cmpd 24]

IC50 [1]: 1230 nM
SMILES: Cc1cccc(-c2csc3c(=O)cc(N4CCOCC4)oc23)c1 [Cmpd 16]

IC50 [1]: 901 nM
SMILES: O=c1cc(N2CCOCC2)oc2c(-c3ccc4[nH]ccc4c3)csc12 [Cmpd 19]

inhibition at 0.3 µM (PI3Kα): 76% | inhibition at 0.3 µM (PI3Kγ): 30% | inhibition at 0.3 µM (PI3Kδ): 80%
SMILES: O=C(NO)c1ccc(-c2csc3c(=O)cc(N4CCOCC4)oc23)cc1 [Cmpd 118]
HDAC activity inhibition versus control (HDAC; 1 μM): 17% | HDAC activity inhibition versus control (HDAC; 10 μM): 25% | HDAC activity inhibition versus control (HDAC; 50 μM): 41% | HDAC inhibitory activity (HDAC): significant HDAC inhibitory activity

IC50 [1]: 3240 nM
SMILES: O=c1cc(N2CCOCC2)oc2c(-c3ccoc3)csc12 [Cmpd 27]

IC50 [1]: 948 nM
SMILES: Cc1ccc(-c2csc3c(=O)cc(N4CCOCC4)oc23)cc1 [Cmpd 15]

inhibition at 0.3 µM (PI3Kα): 53% | inhibition at 0.3 µM (PI3Kγ): 26% | inhibition at 0.3 µM (PI3Kδ): 81%
SMILES: COC(=O)c1ccc(-c2csc3c(=O)cc(N4CCOCC4)oc23)cc1 [Cmpd 44, Methyl 4-(5-morpholino-7-oxo-7H-thieno[3,2-b]pyran-3-yl)benzoate]
BRD4 inhibition (BRD4): showed activity against BRD4 regions 1 and 2 | HDAC inhibitory activity (HDAC): No inhibitor activity

IC50 [1]: 1070 nM
SMILES: COc1cccc(-c2csc3c(=O)cc(N4CCOCC4)oc23)c1 [Cmpd 29]

IC50 [1]: 1560 nM
SMILES: O=c1cc(N2CCOCC2)oc2c(-c3ccsc3)csc12 [Cmpd 26]

IC50 [1]: 1570 nM
SMILES: O=c1cc(N2CCOCC2)oc2c(-c3cc4ccccc4[nH]3)csc12 [Cmpd 12]

IC50 [1]: 6320 nM
SMILES: Nc1cccc(-c2csc3c(=O)cc(N4CCOCC4)oc23)c1 [Cmpd 11, 3-(3-Amino-phenyl)-5-morpholin-4-yl-thieno[3,2-b]pyran-7-one]

IC50 [1]: 1410 nM
SMILES: O=c1cc(N2CCOCC2)oc2c(-c3ccc(Cl)cc3)csc12 [Cmpd 17]

IC50 [1]: 1040 nM
SMILES: COC(=O)c1scc(-c2csc3c(=O)cc(N4CCOCC4)oc23)c1O [Cmpd 21]

IC50 [1]: 1020 nM
SMILES: O=c1cc(N2CCOCC2)oc2c(-c3cccs3)csc12 [Cmpd 14]

IC50 [1]: 780 nM
SMILES: CN(C)c1ccc(-c2csc3c(=O)cc(N4CCOCC4)oc23)cc1 [Cmpd 9]

Continued, compound first:

SMILES: N#Cc1ccc(-c2csc3c(=O)cc(N4CCOCC4)oc23)cc1 [Cmpd 5]
IC50 [1]: 7300 nM

SMILES: O=c1cc(N2CCOCC2)oc2c(-c3ccco3)csc12 [Cmpd 4]
IC50 [1]: 930 nM

SMILES: Cc1cnc(Nc2ccc(N3CCN(C)CC3)cc2)nc1Nc1cccc(S(=O)(=O)NC(C)(C)C)c1 [TG101209]
BRD4-1 inhibition (BRD4-1): potently inhibit

SMILES: O=c1cc(N2CCOCC2)oc2c(-c3ccncc3)csc12 [Cmpd 2]
IC50 [1]: 3030 nM

SMILES: O=c1cc(N2CCOCC2)oc2c(-c3ccc4c(c3)OCO4)csc12 [Cmpd 7]
IC50 [1]: 540 nM

SMILES: Cc1c(Cn2c(C)nc3c(C(=O)O)cc(N4CCOCC4)cc32)cccc1C(F)(F)F [GSK2636771]
BRD4-1 inhibition (BRD4-1): some degree of BRD4-1 inhibitory activity

SMILES: CC(C)n1nc(-c2cc3cc(O)ccc3[nH]2)c2c(N)ncnc21 [PP-242]
BRD4-1 inhibition (BRD4-1): some degree of BRD4-1 inhibitory activity

SMILES: O=c1cc(N2CCNCC2)oc2c(-c3ccccc3)cccc12 [LY303511]
MYCN expression (Brd4-precipitated chromatin, MYCN promoter PCR) (MYCN promoter region): significantly repressed MYCN expression | PI3K inhibition activity (PI-3 kinases): lose PI3K inhibition activity | MYCN quantity by Western blot (N-MYC): inhibited only MYCN quantities | BET bromodomain inhibition (BET bromodomains): retain BET bromodomain inhibition

SMILES: O=c1cc(N2CCOCC2)oc2c(-c3ccccc3)cccc12 [LY294002, 2-(4-morpholinyl)-8-phenyl-4H-1-benzopyran-4-one]
MYCN expression (Brd4-precipitated chromatin, MYCN promoter PCR) (MYCN promoter region): significantly repressed MYCN expression | pAKT level by Western blot (p-AKT(Ser473)): decreased MYCN and pAKT | MYCN quantity by Western blot (N-MYC): decreased MYCN | BET bromodomain inhibition (BET bromodomains): modestly inhibit

SMILES: Cc1cnc(Nc2ccc(OCCN3CCCC3)cc2)nc1Nc1cccc(S(=O)(=O)NC(C)(C)C)c1 [TG-101348]
BRD4-1 inhibition (BRD4-1): some degree of BRD4-1 inhibitory activity

SMILES: O=c1cc(N2CCOCC2)oc2c(Cc3ccccc3)csc12 [Cmpd 1]
IC50 [1]: 864 nM

SMILES: O=c1cc(N2CCOCC2)oc2c(-c3ccccc3)csc12 [Cmpd 6]
IC50 [1]: 550 nM

SMILES: Nc1cc(C(F)(F)F)c(-c2cc(N3CCOCC3)nc(N3CCOCC3)n2)cn1 [BKM120, reference compound]
pAKT level by Western blot (p-AKT(Ser473)): decreased pAKT | BRD4 inhibition (BRD4): no BRD4 inhibition

SMILES: O=c1cc(N2CCOCC2)oc2c(-c3cccnc3)csc12 [Cmpd 3]
IC50 [1]: 4870 nM

SMILES: CN(c1ccccc1CNc1nc(Nc2ccc3c(c2)CC(=O)N3)ncc1C(F)(F)F)S(C)(=O)=O [PF-431396]
BRD4-1 inhibition (BRD4-1): some degree of BRD4-1 inhibitory activity

SMILES: Cc1sc2c(c1C)C(c1ccc(Cl)cc1)=N[C@@H](CC(=O)OC(C)(C)C)c1nnc(C)n1-2 [JQ-1]
MYCN expression (Brd4-precipitated chromatin, MYCN promoter PCR) (MYCN promoter region): significantly repressed MYCN expression | MYCN quantity by Western blot (N-MYC): inhibited only MYCN quantities | PI3K inhibition (PI3K): does not inhibit PI3K

SMILES: Cn1c(=O)n(-c2ccc(C(C)(C)C#N)cc2)c2c3cc(-c4cnc5ccccc5c4)ccc3ncc21 [BEZ235]
pAKT level by Western blot (p-AKT(Ser473)): decreased pAKT

SMILES: CC[C@H](Nc1ncnc2[nH]cnc12)c1nc2cccc(F)c2c(=O)n1-c1ccccc1 [CAL101]
MYCN expression (Brd4-precipitated chromatin, MYCN promoter PCR) (MYCN promoter region): did not | pAKT level by Western blot (p-AKT(Ser473)): decreased pAKT | BRD4 inhibition (BRD4): no BRD4 inhibition

SMILES: CS(=O)(=O)CCNCc1ccc(-c2ccc3ncnc(Nc4ccc(OCc5cccc(F)c5)c(Cl)c4)c3c2)o1 [Lapatinib]
breast cancer stem cells in biopsies after treatment (breast cancer stem cells): 5 % of cells
